Measured values reported in patent US7825118B2, “Inhibitors of bruton's tyrosine kinase” (Pharmacyclics, Inc., priority 2006, dated 2010).
Read-outs that look alike come from different tables or passages of the source. Blank lines part the entries; values can stand above or below the compound they belong to.

How the values were obtained:
[1] = system: Egr-1; assay: Expression of ERK transcriptional target Egr-1; assay type: cell-based; settings: 1 uM
[2] = system: DHL-6; assay: Cytotoxicity DHL-6; assay type: cell-based; settings: Lymphoma
[3] = system: DOHH2; assay: Cytotoxicity DOHH2; assay type: cell-based; settings: for GI50: Homo sapiens, DOHH-2, Lymphoma
[4] = system: Ramos; assay: Sensitivity of Ramos cell line; assay type: cell-based, human
Text: (§1) To identify biomarkers that correlate with response to Compound 4, phosphorylation events in the BCR signal transduction pathway were investigated. […].

[5] = system: pERK in DOHH2 cells; assay: Basal pERK levels in unstimulated DOHH2 cells; assay type: cell-based; settings: Homo sapiens, DOHH-2, read-out: decrease of pERK levels IC50
Text: as §1
. However, when we examined basal phosphorylation levels, we found higher basal phosphorylation in DOHH2 compared to Ramos, with phospho-ERK in particular indicating higher levels of basal or tonic signaling in DOHH2. […]

[6] = system: MDA-MB-361; assay: Cytotoxicity MDA-MB-361; assay type: cell-based; settings: Homo sapiens, Breast
[7] = system: CRL-8062; assay: Cytotoxicity CRL-8062; assay type: cell-based; settings: Myeloma
[8] = system: Btk expressing B cell lymphoma cell lines; assay: Panel of nine Btk expressing B cell lymphoma cell lines; assay type: cell-based
[9] = system: Raji; assay: Cytotoxicity Raji; assay type: cell-based; settings: Homo sapiens, Lymphoma
[10] = system: Mino; assay: Cytotoxicity Mino; assay type: cell-based; settings: Homo sapiens, Lymphoma
[11] = system: DLCL2; assay: Cytotoxicity DLCL2; assay type: cell-based; settings: Lymphoma
[12] = system: MDA-MB-453; assay: Cytotoxicity MDA-MB-453; assay type: cell-based; settings: Homo sapiens, Breast
[13] = system: NCI-H460; assay: Cytotoxicity NCI-H460; assay type: cell-based; settings: Homo sapiens, Lung
[14] = system: A549; assay: Cytotoxicity A549; assay type: cell-based; settings: Homo sapiens, Lung
[15] = system: SK-BR3; assay: Cytotoxicity SK-BR3; assay type: cell-based; settings: Homo sapiens, SK-BR-3; Breast
[16] = system: MDA-MB-231; assay: Cytotoxicity MDA-MB-231; assay type: cell-based; settings: Homo sapiens, Breast
[17] = system: MDA-MB-468; assay: Cytotoxicity MDA-MB-468; assay type: cell-based; settings: Homo sapiens, Breast
[18] = system: BT-549; assay: Cytotoxicity BT-549; assay type: cell-based; settings: Homo sapiens, Breast
[19] = target: Btk (Homo sapiens, UniProt Q06187); assay: Btk acellular kinase assay (TR-FRET); assay type: biochemical
Btk, sequence (Q06187 whole entry): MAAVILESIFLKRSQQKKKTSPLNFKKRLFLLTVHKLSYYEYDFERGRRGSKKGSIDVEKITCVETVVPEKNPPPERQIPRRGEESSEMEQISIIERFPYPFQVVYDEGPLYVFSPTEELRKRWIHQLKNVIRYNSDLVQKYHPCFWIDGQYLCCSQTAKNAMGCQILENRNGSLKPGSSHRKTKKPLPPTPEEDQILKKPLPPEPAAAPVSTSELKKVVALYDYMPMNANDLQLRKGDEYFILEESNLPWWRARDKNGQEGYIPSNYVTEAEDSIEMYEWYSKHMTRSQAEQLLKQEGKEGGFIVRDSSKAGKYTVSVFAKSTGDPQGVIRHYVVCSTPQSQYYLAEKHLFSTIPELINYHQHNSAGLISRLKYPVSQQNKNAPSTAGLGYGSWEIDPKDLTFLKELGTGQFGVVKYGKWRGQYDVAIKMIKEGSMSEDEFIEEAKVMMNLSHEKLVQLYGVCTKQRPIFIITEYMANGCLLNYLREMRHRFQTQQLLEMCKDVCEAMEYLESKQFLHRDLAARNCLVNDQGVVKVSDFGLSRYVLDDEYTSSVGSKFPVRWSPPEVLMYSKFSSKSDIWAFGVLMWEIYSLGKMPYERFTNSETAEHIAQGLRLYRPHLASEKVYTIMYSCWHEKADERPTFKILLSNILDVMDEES

[20] = target: JAK3 (Homo sapiens, UniProt P52333); assay: Panel of kinases: JAK3; assay type: biochemical; settings: Cys: Y
JAK3, sequence (P52333 whole entry): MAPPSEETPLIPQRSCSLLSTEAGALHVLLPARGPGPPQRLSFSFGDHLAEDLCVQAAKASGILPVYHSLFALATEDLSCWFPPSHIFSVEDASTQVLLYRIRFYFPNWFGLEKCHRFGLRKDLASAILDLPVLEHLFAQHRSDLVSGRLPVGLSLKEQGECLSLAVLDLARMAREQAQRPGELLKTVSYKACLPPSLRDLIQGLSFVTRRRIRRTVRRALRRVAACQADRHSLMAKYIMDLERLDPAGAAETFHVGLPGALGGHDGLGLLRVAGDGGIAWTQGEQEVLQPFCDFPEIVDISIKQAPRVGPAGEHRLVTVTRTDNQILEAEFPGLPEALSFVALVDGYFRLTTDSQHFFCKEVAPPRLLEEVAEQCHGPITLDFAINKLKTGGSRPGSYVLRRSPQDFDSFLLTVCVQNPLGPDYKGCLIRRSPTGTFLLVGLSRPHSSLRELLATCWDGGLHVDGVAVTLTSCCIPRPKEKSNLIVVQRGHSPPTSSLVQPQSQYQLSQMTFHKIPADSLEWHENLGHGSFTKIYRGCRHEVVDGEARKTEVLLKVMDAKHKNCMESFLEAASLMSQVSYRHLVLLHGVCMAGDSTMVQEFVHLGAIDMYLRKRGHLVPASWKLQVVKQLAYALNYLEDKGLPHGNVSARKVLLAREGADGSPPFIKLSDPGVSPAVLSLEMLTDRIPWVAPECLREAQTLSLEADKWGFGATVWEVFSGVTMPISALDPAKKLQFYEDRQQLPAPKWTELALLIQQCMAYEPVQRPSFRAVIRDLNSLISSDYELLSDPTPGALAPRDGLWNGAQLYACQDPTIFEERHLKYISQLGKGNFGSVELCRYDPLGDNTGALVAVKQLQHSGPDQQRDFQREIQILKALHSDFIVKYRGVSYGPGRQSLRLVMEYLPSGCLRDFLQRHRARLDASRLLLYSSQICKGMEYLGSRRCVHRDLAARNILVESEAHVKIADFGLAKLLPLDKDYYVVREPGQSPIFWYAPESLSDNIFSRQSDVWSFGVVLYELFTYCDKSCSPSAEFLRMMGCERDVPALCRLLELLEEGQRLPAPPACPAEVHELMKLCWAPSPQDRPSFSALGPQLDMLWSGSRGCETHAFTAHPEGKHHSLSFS

[21] = target: BLK (Homo sapiens, UniProt P51451); assay: Panel of kinases: BLK; assay type: biochemical; settings: Cys: Y
BLK, sequence (P51451 whole entry): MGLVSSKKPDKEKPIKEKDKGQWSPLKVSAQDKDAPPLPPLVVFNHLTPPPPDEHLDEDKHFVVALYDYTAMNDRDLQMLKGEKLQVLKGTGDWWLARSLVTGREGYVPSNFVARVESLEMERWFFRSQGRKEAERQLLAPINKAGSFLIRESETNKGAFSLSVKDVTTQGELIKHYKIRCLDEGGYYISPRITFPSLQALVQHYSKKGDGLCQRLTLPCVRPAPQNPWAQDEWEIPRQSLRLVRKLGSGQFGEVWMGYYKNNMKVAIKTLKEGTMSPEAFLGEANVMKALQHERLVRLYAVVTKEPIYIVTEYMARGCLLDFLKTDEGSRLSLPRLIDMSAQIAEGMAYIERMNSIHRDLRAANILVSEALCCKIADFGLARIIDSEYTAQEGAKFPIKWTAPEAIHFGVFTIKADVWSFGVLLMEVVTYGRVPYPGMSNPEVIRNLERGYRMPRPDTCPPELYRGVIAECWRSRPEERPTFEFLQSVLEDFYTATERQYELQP

[22] = target: ITK (Homo sapiens, UniProt Q08881); assay: Panel of kinases: ITK; assay type: biochemical; settings: Cys: Y
ITK, sequence (Q08881 whole entry): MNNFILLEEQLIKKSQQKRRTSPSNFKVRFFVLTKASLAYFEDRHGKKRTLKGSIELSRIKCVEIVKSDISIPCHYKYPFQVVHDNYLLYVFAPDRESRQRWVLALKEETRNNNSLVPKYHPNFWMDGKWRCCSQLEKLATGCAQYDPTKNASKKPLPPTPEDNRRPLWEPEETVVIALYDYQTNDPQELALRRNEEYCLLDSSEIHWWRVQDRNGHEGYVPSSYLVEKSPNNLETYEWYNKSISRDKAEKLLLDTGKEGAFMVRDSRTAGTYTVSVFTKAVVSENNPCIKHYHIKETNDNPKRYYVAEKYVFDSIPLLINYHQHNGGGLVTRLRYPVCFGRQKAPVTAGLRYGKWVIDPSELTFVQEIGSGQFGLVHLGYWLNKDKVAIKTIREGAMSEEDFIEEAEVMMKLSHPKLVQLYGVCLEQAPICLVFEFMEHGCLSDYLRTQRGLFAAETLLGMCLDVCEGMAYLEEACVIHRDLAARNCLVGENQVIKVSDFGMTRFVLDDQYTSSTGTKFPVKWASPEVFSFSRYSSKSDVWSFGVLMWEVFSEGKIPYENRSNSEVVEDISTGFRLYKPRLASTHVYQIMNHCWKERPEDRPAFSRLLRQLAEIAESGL

[23] = system: DHL-6 cells; assay: Growth of DHL-6 cells (Alamar Blue, FIG. 3); assay type: cell-based; settings: 3E4 cells/well, complete media, 0.1% DMSO
[24] = acellular TR-FRET kinase assay, ATP at Km, read-out: Btk IC50

Compound: C=CC(=O)N1CCCC(n2nc(-c3ccc(Oc4ccccc4)cc3)c3c(N)ncnc32)C1 (centres unmarked) [Compound 4, 1-(3-(4-amino-3-(4-phenoxyphenyl)-1H-pyrazolo[3,4-d]pyrimidin-1-yl)piperidin-1-yl)prop-2-en-1-one]
time within which Egr-1 expression is reduced [1]: ≤ 1 h
GI50 [2]: 0.75 µM
sensitivity of cell line DOHH2 [3]: sensitive
GI50 [3]: 0.77 µM
sensitivity of cell line Ramos [4]: resistant
IC50 [5]: < 0.01 µM
GI50 [6]: > 10 µM
GI50 [7]: > 10 µM
GI50 ([8]; B-cell, 5 of seven lines with high basal pERK, read-out: GI50 of sensitive cell lines): < 1.3 µM
response of cell lines with low pERK levels ([8]; two cell lines with low pERK levels): resistant
GI50 [9]: > 10 µM
GI50 [10]: 1.9 µM
GI50 [11]: 1.3 µM
GI50 [12]: < 0.001 µM
GI50 [13]: > 10 µM
GI50 [14]: > 10 µM
GI50 [15]: 0.44 µM
GI50 [16]: > 10 µM
GI50 [17]: > 10 µM
GI50 [18]: > 10 µM

fold less potent than 4 ([19]; Btk potency relative to compound 4): 28 fold
IC50 [19, 24]: 0.02 µM
Compound: C/C=C/C(=O)N1CCCC(n2nc(-c3ccc(Oc4ccccc4)cc3)c3c(N)ncnc32)C1 (centres unmarked) [Compound 5, (E)-1-(3-(4-amino-3-(4-phenoxyphenyl)-1H-pyrazolo[3,4-d]pyrimidin-1-yl)piperidin-1-yl)but-2-en-1-one]

Compound: C#CC(=O)N1CCCC(n2nc(-c3ccc(Oc4ccccc4)cc3)c3c(N)ncnc32)C1 (centres unmarked) [Compound 8, 1-(3-(4-amino-3-(4-phenoxyphenyl)-1H-pyrazolo[3,4-d]pyrimidin-1-yl)piperidin-1-yl)prop-2-yn-1-one]
IC50 [19]: 0.00072 µM

IC50 [19, 24]: 0.0036 µM
Compound: C=CC(=O)N1CCC(n2nc(-c3ccc(Oc4ccccc4)cc3)c3c(N)ncnc32)CC1 [Compound 9, 1-(4-(4-amino-3-(4-phenoxyphenyl)-1H-pyrazolo[3,4-d]pyrimidin-1-yl)piperidin-1-yl)prop-2-en-1-one]

IC50 [20]: 8.28 µM
IC50 [21]: 0.00017 µM
IC50 [22]: 0.91 µM
Compound: C=CC(=O)N[C@H]1CC[C@@H](n2nc(-c3ccc(Oc4ccccc4)cc3)c3c(N)ncnc32)CC1 [Compound 10, N-((1s,4s)-4-(4-amino-3-(4-phenoxyphenyl)-1H-pyrazolo[3,4-d]pyrimidin-1-yl)cyclohexyl)acrylamide]
GI50 [2]: 0.009 µM
GI50 [3]: 0.011 µM
GI50 [6]: > 10 µM
GI50 [7]: > 10 µM
GI50 [9]: > 10 µM
GI50 [10]: 0.12 µM
GI50 [11]: 4.82 µM
GI50 [12]: 0.54 µM
GI50 [13]: > 10 µM
GI50 [14]: 3.13 µM
GI50 [15]: 0.24 µM
GI50 [16]: > 10 µM
GI50 [17]: > 10 µM
GI50 [18]: 2.79 µM

IC50 [19, 24]: 0.0016 µM
Compound: C=CC(=O)N1CC[C@@H](n2nc(-c3ccc(Oc4ccccc4)cc3)c3c(N)ncnc32)C1 [Compound 11, 1-((R)-3-(4-amino-3-(4-phenoxyphenyl)-1H-pyrazolo[3,4-d]pyrimidin-1-yl)pyrrolidin-1-yl)prop-2-en-1-one]

IC50 [19, 24]: 0.0019 µM
Compound: C=CC(=O)N1CC[C@H](n2nc(-c3ccc(Oc4ccccc4)cc3)c3c(N)ncnc32)C1 [Compound 12, 1-((S)-3-(4-amino-3-(4-phenoxyphenyl)-1H-pyrazolo[3,4-d]pyrimidin-1-yl)pyrrolidin-1-yl)prop-2-en-1-one]

Compound: CN(C)C/C=C/C(=O)N1CCC[C@@H](n2nc(-c3ccc(Oc4ccccc4)cc3)c3c(N)ncnc32)C1 [Compound 15, (E)-1-(3-(4-amino-3-(4-phenoxyphenyl)-1H-pyrazolo[3,4-d]pyrimidin-1-yl)piperidin-1-yl)-4-(dimethylamino)but-2-en-1-one]
growth of DHL-6 cells [23]: inhibit growth
